Assays:
Assay type in all cases: in vivo
[1] = system: Cotton Aphid (aphis gossypii, Mixed Life Stages); assay: Cotton aphid (aphis gossypii, mixed life stages), cotyledon dip test; settings: 120 h, mortality counts after 5 days, in comparison with untreated controls
From the text: (§1) The active compounds were formulated in 50:50 (vol:vol) acetone:water and 100 ppm Kinetica™ surfactant.
Cotton plants at the cotyledon stage (one plant per pot) were infested by placing a heavily infested leaf from the main colony on top of each cotyledon. The aphids were allowed to transfer to the host plant overnight, and the leaf used to transfer the aphids was removed. The cotyledons were dipped in the test solution and allowed to dry. After 5 days, mortality counts were made.

[2] = system: Green Peach Aphid (Myzus persicae, Mixed Life Stages); assay: Green peach aphid (Myzus persicae, mixed life stages), pepper leaf dip test; settings: foliar, 120 h, after 5 days, in comparison with untreated controls
From the text: as §1
Pepper plants in the 2nd leaf-pair stage (variety ‘California Wonder’) were infested with approximately 40 laboratory-reared aphids by placing infested leaf sections on top of the test plants. The leaf sections were removed after 24 hr. The leaves of the intact plants were dipped into gradient solutions of the test compound and allowed to dry. Test plants were maintained under fluorescent light (24 hour photoperiod) at about 25° C. and 20-40% relative humidity. Aphid mortality on the treated plants, relative to mortality on check plants, was determined after 5 days.

[3] = system: Cowpea Aphid (aphis craccivora); assay: Cowpea aphid (aphis craccivora), spray on potted cowpea plants; settings: population reduction assessed after 24, 72 and 120 hours, in comparison with untreated controls
Description: The active compounds were formulated in 50:50 (vol:vol) acetone:water. The test solution was prepared at the day of use.
Potted cowpea plants colonized with 100-150 aphids of various stages were sprayed after the pest population had been recorded. Population reduction was assessed after 24, 72, and 120 hours.

[4] = system: Silverleaf Whitefly (bemisia argentifolii, adult); assay: Silverleaf whitefly (bemisia argentifolii, adult), cotton cotyledon dip test; settings: 72 h, 3 days after treatment, in comparison with untreated controls
Description: as §1
Selected cotton plants were grown to the cotyledon state (one plant per pot). The cotyledons were dipped into the test solution to provide complete coverage of the foliage and placed in a well-vented area to dry. Each pot with treated seedling was placed in a plastic cup and 10 to 12 whitefly adults (approximately 3-5 day old) were introduced. The insects were collected using an aspirator and an 0.6 cm, non-toxic Tygon® tubing (R-3603) connected to a barrier pipette tip. The tip, containing the collected insects, was then gently inserted into the soil containing the treated plant, allowing insects to crawl out of the tip to reach the foliage for feeding. The cups were covered with a reusable screened lid (150 micron mesh polyester screen PeCap from Tetko Inc). Test plants were maintained in the holding room at about 25° C. and 20-40% relative humidity for 3 days avoiding direct exposure to the fluorescent light (24 hour photoperiod) to prevent trapping of heat inside the cup. Mortality was assessed 3 days after treatment of the plants.

[5] = system: Vetch Aphid (Megoura viciae); assay: Vetch aphid (Megoura viciae), bean leaf disk microtiterplate test; settings: foliar, 144 h, concentration of the test solution 2500 mg/L, 6 days
Description: The active compounds were formulated in 1:3 (vol:vol) DMSO:water with different concentrations of formulated compounds.
Bean leaf disks were placed into microtiterplates filled with 0.8% agar-agar and 2.5 ppm OPUS™. The leaf disks were sprayed with 2.5 μl of the test solution and 5 to 8 adult aphids were placed into the microtiterplates which were then closed and kept at 23±1° C. and 50±5% relative humidity under fluorescent light for 6 days. Mortality was assessed on the basis of vital, reproduced aphids. Aphid mortality and fecundity was then visually assessed.

[6] = system: Southern Armyworm (spodoptera eridania, 2nd instar larvae); assay: Southern armyworm (spodoptera eridania, 2nd instar larvae), lima bean leaf dip test; settings: foliar, 96 h, at 4 days, in comparison with untreated controls
Description: as §1
A pair of first true leaves of Sieva lima bean was dipped in the test solution and allowed to dry. The leaf was then placed in a plastic perforated zip enclosure bag and ten 2nd instar larvae were added. At 4 days, observations were made of mortality and reduced feeding.

[7] = system: Boll Weevil (Anthonomus grandis); assay: Boll weevil (Anthonomus grandis), insect diet microtiter plate test; settings: 120 h, concentration of the test solution 2500 mg/L, egg and larval mortality after 5 days
Description: The compounds were formulated in 75:25 (vol:vol) water:DMSO.
For evaluating control of boll weevil (Anthonomus grandis) the test unit consisted of 24-well-microtiter plates containing an insect diet and 20-30 A. grandis eggs. Different concentrations of formulated compounds were sprayed onto the insect diet at 20 μl, using a custom built micro atomizer, at two replications. After application, the microtiter plates were incubated at 23±1° C. and 50±5% relative humidity for 5 days. Egg and larval mortality was then visually assessed.

Row | SMILES | mortality at 300 ppm [1] | mortality at 300 ppm [2] | mortality at 300 ppm [3] | mortality at 300 ppm [4] | mortality at 2500 µg/mL [5] | mortality at 300 ppm [6] | mortality at 2500 µg/mL [7]
1 | CCn1ncc(C(=O)N(C)c2cccnc2)c1C [Compound 180] | ≥ 75% | ≥ 50% | ≥ 75% | ≥ 50% | – | – | –
2 | O=C(Nc1cccnc1)c1cnn(Cc2ccccc2)c1 [Compound 82] | ≥ 75% | ≥ 50% | ≥ 75% | ≥ 50% | – | – | –
3 | CC(=O)N(C(=O)c1cn(C)nc1C(F)(F)F)c1cccnc1 [Compound 134] | ≥ 75% | ≥ 50% | ≥ 75% | ≥ 50% | ≥ 80% | – | –
4 | O=C(Nc1cccnc1)c1cnn(C(F)F)c1 [Compound 213] | ≥ 75% | ≥ 50% | ≥ 75% | – | – | ≥ 50% | –
5 | CN(C(=O)c1cnn(C)c1C(F)(F)F)c1cccnc1 [Compound 174] | ≥ 75% | ≥ 50% | ≥ 75% | – | – | ≥ 50% | –
6 | Cn1cc(C(=O)Nc2cccnc2)c(C(F)(F)F)n1 [Compound 196] | ≥ 75% | ≥ 50% | ≥ 75% | – | – | ≥ 50% | –
7 | Cn1ncc(C(=O)Nc2cccnc2)c1C(F)(F)F [Compound 109] | ≥ 75% | ≥ 50% | ≥ 75% | ≥ 50% | ≥ 80% | – | 100%
8 | CN(C(=O)c1cnn(C(F)F)c1C(F)F)c1cccnc1 [Compound 189] | ≥ 75% | ≥ 50% | ≥ 75% | – | ≥ 80% | ≥ 50% | 100%
9 | Cc1cccc(-n2ncc(C(=O)Nc3cccnc3)c2C(F)F)c1 [Compound 158] | ≥ 75% | ≥ 50% | ≥ 75% | – | ≥ 80% | ≥ 50% | –
10 | Cc1nn(C(F)F)cc1C(=O)Nc1cccnc1 [Compound 209] | ≥ 75% | ≥ 50% | ≥ 75% | – | – | ≥ 50% | –
11 | Cc1nn(C(F)F)cc1C(=O)N(C)c1cccnc1 [Compound 229] | ≥ 75% | ≥ 50% | – | ≥ 50% | – | – | –
12 | Cc1c(C(=O)N(C)c2cccnc2)cnn1C(F)F [Compound 220] | ≥ 75% | ≥ 50% | ≥ 75% | – | ≥ 80% | ≥ 50% | 100%
13 | Cc1c(C(=O)Nc2cccnc2)cnn1C [Compound 179] | ≥ 75% | ≥ 50% | ≥ 75% | – | – | ≥ 50% | –
14 | Cn1ncc(C(=O)Nc2cccnc2)c1Cl [Compound 83] | ≥ 75% | ≥ 50% | ≥ 75% | ≥ 50% | – | – | –
15 | O=C(Nc1cccnc1)c1cnn(-c2ccc([N+](=O)[O-])cc2)c1C(F)(F)F [Compound 199] | ≥ 75% | ≥ 50% | ≥ 75% | – | – | ≥ 50% | –
16 | O=C(Nc1cccnc1)c1cn(C(F)F)nc1C(F)F [Compound 194] | ≥ 75% | ≥ 50% | ≥ 75% | – | ≥ 80% | – | 100%

Row | SMILES | mortality at 300 ppm [1] | mortality at 300 ppm [2] | mortality at 300 ppm [3] | mortality at 300 ppm [4] | mortality at 2500 µg/mL [5] | mortality at 300 ppm [6] | mortality at 2500 µg/mL [7]
17 | O=C(Nc1cccnc1)c1cn(-c2ccc(Cl)cc2)nc1C(F)(F)F [Compound 73] | ≥ 75% | ≥ 50% | ≥ 75% | ≥ 50% | ≥ 80% | – | –
18 | O=C(Nc1cccnc1)c1cnn(-c2ccccc2Cl)c1C(F)F [Compound 148] | ≥ 75% | ≥ 50% | ≥ 75% | – | ≥ 80% | – | 100%
19 | Cn1nc(C(F)(F)F)c(C(=O)Nc2cccnc2)c1F [Compound 78] | – | – | – | – | – | ≥ 50% | –
20 | O=C(Nc1cccnc1)c1cnn(-c2ccc(F)cc2)c1C(F)(F)F [Compound 228] | ≥ 75% | ≥ 50% | – | – | ≥ 80% | ≥ 50% | –
21 | CN(C(=O)c1cnn(C(F)(F)F)c1)c1cccnc1 [Compound 233] | ≥ 75% | ≥ 50% | – | – | – | ≥ 50% | –
22 | O=C(Nc1cccnc1)c1cnn(-c2cccc(Cl)c2)c1C(F)F [Compound 157] | ≥ 75% | ≥ 50% | ≥ 75% | – | ≥ 80% | ≥ 50% | 100%
23 | CCCn1cc(C(=O)Nc2cccnc2)cn1 [Compound 108] | ≥ 75% | ≥ 50% | ≥ 75% | – | ≥ 80% | – | 100%
24 | CC(C)Cn1cc(C(=O)Nc2cccnc2)cn1 [Compound 98] | ≥ 75% | ≥ 50% | ≥ 75% | – | ≥ 80% | ≥ 50% | –
25 | Cn1ncc(C(=O)Nc2cccnc2)c1C(F)F [Compound 167] | ≥ 75% | ≥ 50% | ≥ 75% | – | ≥ 80% | – | 100%
26 | Cn1cc(C(=O)Nc2cccnc2)c(OC(F)F)n1 [Compound 110] | ≥ 75% | ≥ 50% | ≥ 75% | – | ≥ 80% | – | 100%
27 | CN(C(=O)c1cnn(C(F)F)c1C(F)(F)F)c1cccnc1 [Compound 191] | ≥ 75% | – | ≥ 75% | – | ≥ 80% | ≥ 50% | 100%
28 | CCn1cc(C(=O)Nc2cccnc2)cn1 [Compound 102] | ≥ 75% | ≥ 50% | ≥ 75% | ≥ 50% | ≥ 80% | – | 100%
29 | Cn1ncc(C(=O)Nc2cccnc2)c1C1CC1 [Compound 89] | ≥ 75% | ≥ 50% | ≥ 75% | ≥ 50% | ≥ 80% | – | –
30 | Cn1cc(C(=O)Nc2cccnc2)cn1 [Compound 107] | ≥ 75% | ≥ 50% | ≥ 75% | – | ≥ 80% | – | 100%
31 | CCS/C(=N\c1cccnc1)c1cn(C)nc1C(F)(F)F [Compound 243] | ≥ 75% | ≥ 50% | ≥ 75% | – | ≥ 80% | – | 100%
32 | Cn1cc(C(=O)Nc2cccnc2)c(C(F)F)n1 [Compound 170] | ≥ 75% | ≥ 50% | ≥ 75% | – | – | ≥ 50% | –
